Laboratory results taken from patent US20250143990A1, “SKIN MICROBIOME FRIENDLY SUNSCREENS” (BASF SE, priority 2022, published 2025).

Test: Solubility in water
Type: physicochemical

solubility in water: ng/L range
SMILES: CC(C)(C)CC(C)(C)c1cc(Cc2cc(C(C)(C)CC(C)(C)C)cc(-n3nc4ccccc4n3)c2O)c(O)c(-n2nc3ccccc3n2)c1 [2,2′-methylene bis[6-(2H-benzotriazol-2-yl)-4-(1,1,3,3-tetramethylbutyl)phenol]]
